Data published in paper PMC6104039 (Nature Communications, 2018).
Values joined by “and” are separate entries in the source; they are usually repeats but may differ in a detail not shown here. Equal entries are not always repeated. “Also recorded” adds a separate entry of the source.

Test system: SkM
Assay: Lipidomic profiling of skeletal muscle (quadriceps) of mice on chow or HFD
Assay type: in vivo
Excerpt: Male C57BL6/J mice were obtained from the Animal Resources Centre in Perth (WA, Australia). […] Treatment was commenced at the same time as mice were randomised to dietary groups. The experiments were approved by the UNSW animal care and ethics committee (ACEC 15/48B), and followed guidelines issued by the National Health and Medical Research Council of Australia.
Lipids were extracted from frozen tissue samples or cells using a two-phase procedure with methyl-tert-butyl ether (MTBE)/methanol/water (10:3:2.5, v/v/v)[67]. Frozen tissue samples (~20 mg) were homogenized in 0.2 mL methanol containing 0.01% butylated hydroxytoluene (BHT), using a Precellys 24 homogenizer and Cryolys cooling unit (Bertin Technologies) with CK14 (1.4-mm ceramic) beads. The homogenates were spiked with an internal standard mixture comprising 5 nmole 19:0/19:0 phosphatidylcholine and 2 nmole each of 17:0/17:0 phosphatidylethanolamine, 17:0/17:0 phosphatidylserine, 17:0/17:0 d5-diacylglycerol, 17:0/17:0 phosphatidylglycerol, 14:0/14:0/14:0/14:0 cardiolipin, 18:1/12:0 SM, 18:1/17:0 ceramide, 18:1/12:0 glucosylceramide, 18:1/12:0 lactosylceramide, 18:1/12:0 sulfatide (all from Avanti Polar Lipids, USA), and 17:0/17:0/17:0 TAG (Cayman Chemical, USA), then transferred to 10 mL screw cap glass tubes. The homogenization tubes containing beads were then washed with another 0.3 mL methanol, and this wash was combined with the first methanol extract, after which 1.7 mL MTBE was added and the samples were sonicated in an ice-cold sonicating water bath (Thermoline Scientific, Australia) for 30 min. Phase separation was induced by addition of 417 µL of mass spectrometry-grade water followed by vortexing and centrifugation at 1000 × g for 10 min. The upper organic phase was collected into 5 mL glass tubes. The lower phase was re-extracted by adding 1 mL MTBE, 300 μL methanol, and 250 μL water. The organic phases were combined in the 5 mL glass tubes and dried under vacuum in a Savant SC210 SpeedVac (Thermo Scientific), then reconstituted in 500 μL methanol and stored at −20 °C until analysis.
Lipidomic profiling was performed on a QExactive Plus mass spectrometer with heated electrospray ionization (HESI) probe and a Dionex UltiMate 2000 LC pump (Thermo Fisher Scientific). Extracts were resolved on a 2.1 × 100 mm Waters Acquity C18 UPLC column (1.7 µm […]), using a binary gradient in which mobile phase A consisted of acetonitrile:water (60:40), 10 mM ammonium formate, 0.1% formic acid; and mobile phase B was isopropanol:acetonitrile (90:10), 10 mM ammonium formate, 0.1% formic acid[68]. The flow rate was 260 µL/min and column oven 55 °C. Data was acquired in full scan/data-dependent MS^2 mode (full scan resolution 70,000 FWHM, scan range 400–1200 m/z). The ten most abundant ions in each cycle were subjected to MS^2 using an isolation window of 1.4 m/z, collision energy 30 eV, resolution 17,500, maximum integration time 110 ms and dynamic exclusion window 10 s. An exclusion list of background ions was used based on a solvent blank. LipidSearch v4.1.30 software (ThermoFisher Scientific) was used for chromatogram alignment, peak identification and integration. Each lipid peak was manually verified for column elution time and characteristic fragment ions. Data were then exported to an Excel spreadsheet for normalisation of each lipid to its class-specific internal standard, and lipid concentrations were calculated relative to the internal standard.
Data were log transformed, then subjected to two-tailed t-tests adjusted for multiple comparisons using GraphPad PRISM (Benjamini, Krieger and Yekutieli correction, Q = 1%).

[1] = Muscle lipidomic data, Chow Vehicle vs Chow P053, Mean1 minus Mean2
[2] = Muscle lipidomic data, Chow Vehicle vs Chow P053, Mean2 = Chow P053 group
[3] = Muscle lipidomic data, HFD Vehicle vs HFD P053, Mean1 minus Mean2
[4] = Muscle lipidomic data, HFD Vehicle vs HFD P053, Mean2 = HFD P053 group

## C[C@@](N)(CO)CCc1ccc(OCc2ccc(Cl)c(Cl)c2)cc1 [P053, (S)-2-amino-4-(4-(3,4-dichlorobenzyloxy)phenyl)-2-methylbutan-1-ol]
HFD + P053, individual mice
  SM 36:1 content of skeletal muscle: 417.25 and 223.91 and 402.67 and 173.58 and 151.95 and 224.57 and 278.63 and 314.63 and 349.53 and 221.70 and 178.54 and 207.41 and 149.58 and 139.86 and 137.50 and 198.09 and 163.61 and 154.30 and 147.61
  SM 36:2 content of skeletal muscle: 2.88 and 7.47 and 1.66 and 1.87 and 1.75 and 5.22 and 2.66 and 6.56 and 8.38 and 7.06 and 6.58 and 7.04 and 4.61 and 3.90 and 3.95 and 6.89 and 4.71 and 5.16 and 4.33
  SM 38:1 content of skeletal muscle: 11.48 and 13.05 and 11.02 and 10.80 and 17.24 and 10.17 and 15.13 and 9.50 and 12.28 and 0.77 (2×) and 0.82 and 1.11 and 0.80 and 0.71 (2×) and 0.68 and 0.83 and 0.73
  SM 40:1 content of skeletal muscle: 27.34 and 27.26 and 26.32 and 23.00 and 31.62 and 23.79 and 31.23 and 22.04 and 24.26 and 29.13 and 27.02 and 34.08 and 33.01 and 18.95 and 25.13 and 25.49 and 34.47 and 24.05 and 33.50
  SM 40:2 content of skeletal muscle: 1.78 and 2.91 (2×) and 1.98 and 2.11 and 2.83 and 1.89 and 2.53 and 1.77 and 2.29 and 2.59 and 3.38 and 2.49 and 1.96 and 2.67 and 2.64 and 2.84 and 2.34 and 2.94
  SM 42:1 content of skeletal muscle: 15.46 and 16.53 and 18.68 and 19.65 and 22.92 and 14.56 and 23.18 and 14.90 and 18.70 and 19.26 and 17.69 and 25.18 and 22.26 and 12.72 and 19.43 and 19.06 and 23.08 and 18.56 and 31.22
  SM 42:2 content of skeletal muscle: 53.70 and 57.56 and 54.97 and 42.97 and 63.03 and 48.46 and 60.01 and 50.89 and 52.69 and 51.87 and 48.15 and 70.42 and 61.77 and 37.14 and 54.20 and 54.85 and 64.93 and 49.70 and 71.83
  SM 42:3 content of skeletal muscle: 9.08 and 11.26 and 8.06 and 8.54 and 12.73 and 9.01 and 12.20 and 10.73 and 15.91 and 12.10 and 11.91 and 13.64 and 11.55 and 7.81 and 10.86 and 9.89 and 12.79 and 9.17 and 13.47
HFD + P053 compared to HFD + vehicle
  reduction of most triacylglycerol (TAG) species in SkM: more than 50%
[1]
  Cer(d18:1/18:0)+H, Difference: 0.4848
  Cer(d18:2/18:0)+H, Difference: 0.6042
[2]
  Cer(d18:1/18:0)+H, Mean2: 2.896
  Cer(d18:2/18:0)+H, Mean2: 0.4179
[3]
  Cer(d18:1/18:0)+H, Difference: 0.7206
  Cer(d18:1/22:0)+H, Difference: -0.3135
  Cer(d18:1/24:0)+H, Difference: -0.4027
  Cer(d18:1/24:1)+H, Difference: -0.3555
  Cer(d18:2/18:0)+H, Difference: 0.8901
  SM(d41:1)+H, Difference: -0.3059
  SM(d42:2)+H, Difference: -0.2817
[4]
  Cer(d18:1/18:0)+H, Mean2: 2.811
  Cer(d18:1/22:0)+H, Mean2: 0.3563
  Cer(d18:1/24:0)+H, Mean2: 0.4756
  Cer(d18:1/24:1)+H, Mean2: 1.172
  Cer(d18:2/18:0)+H, Mean2: 0.1066
  SM(d41:1)+H, Mean2: 1.941
  SM(d42:2)+H, Mean2: 3.999
Chow or HFD
  DG levels in SkM: does not affect; also recorded: unaffected
Normal chow
  SkM TAG levels: did not affect
Pilot study, 7 days, 1 mg/kg/day
  C18 ceramide levels in SkM: no effect
Pilot study, 7 days, 5 mg/kg/day
  reduction of C18 ceramide levels in SkM: 31%
